The test concerns the target T1, N-terminally GST-tagged DLK (catalytic domain amino acid 1-520) (Homo sapiens, UniProt Q12852).
T1 construct: N-terminally GST-tagged DLK (catalytic domain amino acid 1-520); purchased Carna Bioscience
T1 sequence (Q12852 1-520): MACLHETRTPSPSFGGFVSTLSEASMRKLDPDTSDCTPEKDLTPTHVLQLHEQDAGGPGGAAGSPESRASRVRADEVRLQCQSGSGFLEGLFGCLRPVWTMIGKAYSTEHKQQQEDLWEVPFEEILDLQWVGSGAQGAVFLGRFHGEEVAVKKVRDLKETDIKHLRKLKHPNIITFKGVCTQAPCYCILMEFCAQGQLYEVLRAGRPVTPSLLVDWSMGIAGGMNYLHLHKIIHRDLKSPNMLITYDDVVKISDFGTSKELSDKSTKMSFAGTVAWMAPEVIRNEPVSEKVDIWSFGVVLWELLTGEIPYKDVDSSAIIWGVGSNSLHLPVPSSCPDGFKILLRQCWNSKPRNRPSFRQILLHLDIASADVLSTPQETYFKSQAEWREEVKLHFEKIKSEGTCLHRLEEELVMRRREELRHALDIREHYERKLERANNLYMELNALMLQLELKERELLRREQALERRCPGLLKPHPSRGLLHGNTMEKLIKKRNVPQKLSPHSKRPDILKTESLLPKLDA
Nature of the test: DLK TR-FRET inhibition assay. The test is classed as biochemical. The settings on record: 5 nM GST-DLK, 40 nM HIS-MKK4 K131M substrate, 30 μM ATP, 60 minutes at ambient temperature. The method, boiled down:
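Phosphorylated MKK4 was quantified by TR-FRET (Eu-labelled anti-phospho-MKK4, D2 anti-HIS; 3 h, 665 and 615 nm emission) after EDTA quench. Reactions held 5 nM GST-tagged DLK catalytic domain (1-520), 40 nM HIS-MKK4 K131M substrate, 30 μM ATP and compound (3-fold series from 20 uM), 60 min, room temperature, pH 7.5.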
Compound `CC(C)n1nc(-c2cnc(N)c(OC(F)F)c2)cc1[C@H]1[C@@H]2C[C@H](N3CCO[C@@H](C)C3)C[C@@H]21` [compound 78, 3-(difluoromethoxy)-5-(1-isopropyl-5-((1R,3r,5S,6S)-3-((S)-2-methylmorpholino)bicyclo[3.1.0]hexan-6-yl)-1H-pyrazol-3-yl) pyridin-2-amine] showed an inhibitory constant (Ki) of 0.52 nM. Regarding `CC(C)n1nc(-c2cnc(N)c(C(F)(F)F)c2)cc1[C@H]1[C@@H]2C[C@H](N3C[C@@H]4C[C@H]3CO4)C[C@@H]21` [compound 72, 5-(5-((1R,3r,5S,6S)-3-((1S,4S)-2-oxa-5-azabicyclo[2.2.1]heptan-5-yl)bicyclo[3.1.0]hexan-6-yl)-1-isopropyl-1H-pyrazol-3-yl)-3-(trifluoromethyl)pyridin-2-amine], the inhibition constant (Ki) is 3.48 nM. The result for `CC(C)n1nc(-c2cnc3ccn([C@@H](C)c4ccccn4)c3c2)cc1[C@H]1[C@@H]2C[C@H](N3CCOCC3)C[C@@H]21` [compound 27, 4-((1R,3S,5S,6r)-6-(1-isopropyl-3-(1-((S)-1-(pyridin-2-yl)ethyl)-1H-pyrrolo[3,2-b]pyridin-6-yl)-1H-pyrazol-5-yl)bicyclo[3.1.0]hexan-3-yl)morpholine] reads 0.14 nM. The result for `CC(C)n1nc(-c2cnc(N)c(C(F)(F)F)c2)cc1[C@@H]1[C@H]2CC3C(OCCN3C)[C@H]21` (mixture of isomers) [compound 156, (±)-5-(1-isopropyl-5-(4-methyl-octahydro-2H-cyclopropa[4,5]cyclopenta[1,2-b][1,4]oxazin-6-yl)-1H-pyrazol-3-yl)-3-(trifluoromethyl)pyridin-2-amine] reads 13.5 nM. For the compound `COCCN1CC[C@@]12C[C@@H]1[C@H](C2)[C@H]1c1cc(-c2cnc(N)c(C(F)(F)F)c2)nn1C(C)C` [compound 161, 5-(1-isopropyl-5-((1′R,2r,5′S,6′r)-1-(2-methoxyethyl)spiro [azetidine-2,3′-bicyclo[3,1.0]hexan]-6′-yl)-1H-pyrazol-3-yl)-3-(trifluoro-methyl)pyridin-2-amine], the affinity corresponds to a Ki of 2.5 nM. The result for `Nc1ncc(-c2cc([C@H]3[C@@H]4C[C@@H](N5CCOCC5)C[C@@H]43)n(CC3CC3)n2)cc1OC(F)F` [compound 279, 5-(1-(cyclopropylmethyl)-5-((1R,3s,5S,6r)-3-morpholinobicyclo [3.1.0]hexan-6-yl)-1H-pyrazol-3-yl)-3-(difluoromethoxy)pyridin-2-amine] reads 1.6 nM; that for `CC(C)n1nc(-c2cnc(N)c(C(F)(F)F)c2)cc1[C@H]1[C@@H]2C[C@H](N(C)CCS(C)(=O)=O)C[C@@H]21` [compound 8, 5-(1-isopropyl-5-((1R,3r,5S,6r)-3-(methyl(2-(methylsulfonyl)ethyl)amino)bicyclo[3.1.0]hexan-6-yl)-1H-pyrdzol-3-yl)-3-(trifluoromethyl)pyridin-2-amine], 3.36 nM. Under “5-(1-isopropyl-5-((1R,3r,5S,6R)- 3-((R)-2-methylmorpholino) bicyclo[3.1.0]hexan-6-yl)-1H- pyrazol-3-yl)-3-(trifluoromethyl) pyridin-2-amine [compound 2]” stands 2.06 nM; under `CC(C)n1nc(-c2cnc(N)c(C(F)(F)F)c2)cc1[C@H]1[C@@H]2C[C@H](N3CCN(C)C4(COC4)C3)C[C@@H]21` [compound 179, 5-(1-isopropyl-5-((1R,3r,5S,6r)-3-(5-methyl-2-oxa-5,8-diazaspiro [3.5]nonan-8-yl)bicyclo[3.1.0]hexan-6-yl)-1H-pyrazol-3-yl)-3-(trifluoromethyl)pyridin-2-amine], 4.3 nM; under `CC(C)n1nc(-c2cnc(N)c(OC(F)F)c2)cc1[C@H]1[C@@H]2CC(C)(O)C[C@@H]21` (stereo partly drawn) [compound 105, (1R,5S,6r)-6-(3-(6-amino-5-(difluoro-methoxy)pyridin-3-yl)-1-isopropyl-1H-pyrazol-5-yl)-3-methyl-bicyclo[3.1.0]hexan-3-ol], 18.3 nM. Compound `Nc1ncc(-c2cc([C@H]3[C@@H]4C[C@@H](N5CCOCC5)C[C@@H]43)n(CC(F)F)n2)cc1OC(F)(F)F` [compound 165, 5-(1-(2,2-difluoroethyl)-5-((1R,3s,5S,6r)-3-morpholinobicyclo [3.1.0]hexan-6-yl)-1H-pyrazol-3-yl)-3-(trifluoromethoxy) pyridin-2-amine] came in with a Ki of 1.6 nM. The result for `CC(C)n1nc(-c2cnc(N)c(OC(F)F)c2)cc1[C@H]1[C@@H]2C[C@@H](N3CC(F)(F)C3)C[C@@H]21` [compound 42, 5-(5-((1R,3s,5S,6r)-3-(3,3-difluoroazetidin-1-yl)bicyclo[3.1.0]hexan-6-yl)-1-isopropyl-1H-pyrazol-3-yl)-3-(difluoromethoxy) pyridin-2-amine] reads 4.53 nM; that for `CC(C)n1nc(-c2cnc(N)c(OC(F)F)c2)cc1[C@H]1[C@@H]2C[C@@H](O)C[C@@H]21` [compound 6, (1R,3s,5S,6r)-6-(3-(6-amino-5-(difluoromethoxy)pyridin-3-yl)-1-isopropyl-1H-pyrazol-5-yl) bicyclo[3.1.0]hexan-3-ol], 14.4 nM. As for `CC(C)n1nc(-c2cnc(N)c(OC(F)F)c2)cc1[C@H]1[C@@H]2C[C@@H](N3CCN4CCCC4C3)C[C@@H]21` (stereo partly drawn) [compound 88, 3-(difluoromethoxy)-5-(5-((1R,3s,5S,6r)-3-(hexahydropyrrolo [1,2-a]pyrazin-2(1H)-yl)bicyclo [3.1.0]hexan-6-yl)-1-isopropyl-1H-pyrazol-3-yl)pyridin-2-amine], the affinity corresponds to a Ki of 1.4 nM. The result for `CC(C)n1nc(-c2cnc(N)c(C(F)(F)F)c2)cc1[C@H]1[C@@H]2C[C@@H](OC3COC3)C[C@@H]21` [compound 294, 5-(1-isopropyl-5-((1R,3s,5S,6r)-3-(oxetan-3-yloxy)bicyclo[3.1.0]hexan-6-yl)-1H-pyrazol-3-yl)-3-(trifluoromethyl)pyridin-2-amine] reads 8.9 nM; that for `CC(C)n1nc(-c2cnc(N)c(OC(F)F)c2)cc1[C@H]1[C@@H]2C[C@@H](N3CCN(C)C[C@@H]3C)C[C@@H]21` [compound 241, 3-(difluoromethoxy)-5-(5-((1R,3s,5S,6S)-3-((S)-2,4-dimethyl-piperazin-1-yl)bicyclo[3.1.0]hexan-6-yl)-1-isopropyl-1H-pyrazol-3-yl)pyridin-2-amine], 2 nM; that for `Nc1ncc(-c2cc([C@H]3[C@@H]4C[C@@H](N5CCCOCC5)C[C@@H]43)n(CC(F)F)n2)cc1C(F)(F)F` [compound 135, 5-(5-((1R,3s,5S,6r)-3-(1,4-oxazepan-4-yl)bicyclo[3.1.0]hexan-6-yl)-1-(2,2-difluoroethyl)-1H-pyrazol-3-yl)-3-(trifluoromethyl) pyridin-2-amine], 5.57 nM. Under `CC(C)n1nc(-c2cnc(N)c(OC(F)(F)F)c2)cc1[C@H]1[C@@H]2C[C@@]3(CCN3CC(F)F)C[C@@H]21` [compound 147, 5-(5-((1′R,2r,5′S,6′r)-1-(2,2-difluoro-ethyl)spiro[azetidine-2,3′-bicyclo[3.1.0]hexan]-6′-yl)-1-isopropyl-1H-pyrazol-3-yl)-3-(trifluoro-methoxy)pyridin-2-amine] stands 5.7 nM.

`CC(C)n1nc(-c2cnc(N)c(OC(F)(F)F)c2)cc1[C@H]1[C@@H]2C[C@@H](N(C)CC3COC3)C[C@@H]21` [compound 18, 5-(1-isopropyl-5-((1R,3s,5S,6r)-3-(methyl(oxetan-3-ylmethyl)amino)bicyclo[3.1.0]hexan-6-yl)-1H-pyrazol-3-yl)-3-(trifluoromethoxy) pyridin-2-amine]: the Ki was determined as 3.81 nM.

As to `CC(C)n1nc(-c2cnc(N)c(OC(F)F)c2)cc1[C@H]1[C@@H]2C[C@@H](N3CCCOCC3)C[C@@H]21` [compound 87, 5-(5-((1R,3s,5S,6r)-3-(1,4-oxazepan-4-yl)bicyclo[3.1.0]hexan-6-yl)-1-isopropyl-1H-pyrazol-3-yl)-3-(difluoromethoxy)pyridin-2-amine], the affinity corresponds to a Ki of 0.64 nM. For `CC(C)n1nc(-c2cnc(N)c(OC(F)F)c2)cc1[C@H]1[C@@H]2C[C@@]3(CCN3CC(F)F)C[C@@H]21` [compound 162, 5-(5-((1′R,2r,5′S,6′r)-1-(2,2-difluoro-ethyl)spiro[azetidine-2,3′-bicyclo[3.1.0]hexan]-6′-yl)-1-isopropyl-1H-pyrazol-3-yl)-3-(difluoro-methoxy)pyridin-2-amine], the Ki amounted to 2.6 nM. The result for `CC(C)n1nc(-c2cnc(N)c(OC(F)F)c2)cc1[C@H]1[C@@H]2C[C@H](N3C[C@@H]4C[C@H]3CN4C)C[C@@H]21` [compound 202, 3-(difluoromethoxy)-5-(1-isopropyl-5-((1R,3r,5S,6S)-3-((1S,4S)-5-methyl-2,5-diazabicyclo[2.2.1]heptan-2-yl)bicyclo[3.1.0]hexan-6-yl)-1H-pyrazol-3-yl) pyridin-2-amine] reads 1.2 nM.
